Assay results reported in ChEMBL document CHEMBL2434822, “Discovery of pteridin-7(8H)-one-based irreversible inhibitors targeting the epidermal growth factor receptor (EGFR) kinase T790M/L858R mutant” (J Med Chem, 2013).
The source made the active and inactive calls. The rule behind the calls is not given here.

Key:
[1] = tested on: NCI-H1975; assay: cells; format: functional, cell-based; settings: Homo sapiens, NCI-H1975, 72 h
[2] = target: T1, Epidermal growth factor receptor (Homo sapiens, UniProt P00533); assay: Inhibition of wild type EGFR (unknown origin) using Tyr 4 peptide as substrate after 1.5 hrs by FRET-based Z'-LYTE assay
[3] = target: Epidermal growth factor receptor (Homo sapiens, UniProt P00533, T790M/L858R); assay: (§1) Inhibition of EGFR T790M/L858R double mutant (unknown origin) using Tyr 4 peptide as substrate after 1.5 hrs by FRET-based Z'-LYTE assay; format: protein assay
[4] = Antiproliferative activity against gefitinib-sensitive human HCC827 cells harboring EGFR E746 to A750 deletion after 72 hrs by MTS assay; format: functional, cell-based; settings: HCC827, 72 h
[5] = target: Epidermal growth factor receptor (Homo sapiens, UniProt P00533, L858R); assay: Inhibition of EGFR L858R mutant (unknown origin) using Tyr 4 peptide as substrate after 1.5 hrs by FRET-based Z'-LYTE assay; format: protein assay
[6] = target: Epidermal growth factor receptor (Homo sapiens, UniProt P00533, L858R/T790M); assay: as §1; format: protein assay
[7] = tested on: Epidermal growth factor receptor (Homo sapiens), P00533 [L858R]; settings: 1 uM
[8] = tested on: Mus musculus; assay: Toxicity in nude mouse xenografted with human NCI-H1975 cells expressing T790M/L858R mutation assessed as body weight loss at 20 to 40 mg/kg, ip qd for 14 days relative to control; format: organism-based; set-up: dose 20-40 mg/kg, route intraperitoneal; settings: in vivo, 336 h
[9] = tested on: Mus musculus; assay: Toxicity in nude mouse xenografted with human NCI-H1975 cells expressing T790M/L858R mutation assessed as mortality at 20 to 40 mg/kg, ip qd for 14 days; format: organism-based; set-up: dose 20-40 mg/kg, route intraperitoneal; settings: in vivo, 336 h
[10] = tested on: Epidermal growth factor receptor (Homo sapiens), P00533 [T790M]; settings: 1 uM
[11] = target: Receptor tyrosine-protein kinase erbB-2 (Homo sapiens) (UniProt P04626); settings: 1 uM
Chain of Receptor tyrosine-protein kinase erbB-2 (Homo sapiens) (P04626 whole entry): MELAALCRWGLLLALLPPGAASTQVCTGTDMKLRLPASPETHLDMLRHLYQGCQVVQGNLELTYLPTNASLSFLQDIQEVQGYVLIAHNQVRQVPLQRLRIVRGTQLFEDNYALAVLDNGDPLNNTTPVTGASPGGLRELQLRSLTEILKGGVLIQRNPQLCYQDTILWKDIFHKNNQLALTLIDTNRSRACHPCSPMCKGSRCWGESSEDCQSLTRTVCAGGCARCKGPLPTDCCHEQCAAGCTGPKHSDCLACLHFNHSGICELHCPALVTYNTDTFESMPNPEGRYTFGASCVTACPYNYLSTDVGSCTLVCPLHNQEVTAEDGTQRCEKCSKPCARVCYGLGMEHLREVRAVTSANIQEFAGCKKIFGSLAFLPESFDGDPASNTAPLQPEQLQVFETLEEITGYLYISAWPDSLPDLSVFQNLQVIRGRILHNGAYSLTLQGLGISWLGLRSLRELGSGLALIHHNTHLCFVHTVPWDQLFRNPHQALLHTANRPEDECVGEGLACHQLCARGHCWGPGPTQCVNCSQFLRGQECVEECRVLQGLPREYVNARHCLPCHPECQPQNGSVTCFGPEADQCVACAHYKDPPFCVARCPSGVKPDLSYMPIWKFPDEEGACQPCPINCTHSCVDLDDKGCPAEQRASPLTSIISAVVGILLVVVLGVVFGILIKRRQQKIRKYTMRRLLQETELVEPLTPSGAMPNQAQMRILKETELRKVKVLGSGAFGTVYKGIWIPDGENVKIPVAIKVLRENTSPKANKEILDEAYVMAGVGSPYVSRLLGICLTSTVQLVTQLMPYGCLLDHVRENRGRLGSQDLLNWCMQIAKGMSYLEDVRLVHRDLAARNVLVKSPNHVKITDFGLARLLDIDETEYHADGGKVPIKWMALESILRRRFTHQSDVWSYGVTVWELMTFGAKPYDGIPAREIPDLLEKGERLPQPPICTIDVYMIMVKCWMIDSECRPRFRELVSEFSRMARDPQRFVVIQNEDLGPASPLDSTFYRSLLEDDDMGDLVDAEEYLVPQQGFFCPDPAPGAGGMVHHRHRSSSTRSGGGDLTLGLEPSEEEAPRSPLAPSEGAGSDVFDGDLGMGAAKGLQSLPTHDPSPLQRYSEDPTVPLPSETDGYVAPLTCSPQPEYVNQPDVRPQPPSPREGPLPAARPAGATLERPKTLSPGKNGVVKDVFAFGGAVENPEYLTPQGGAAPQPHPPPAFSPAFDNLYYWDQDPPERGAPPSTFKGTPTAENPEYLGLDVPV
Description: Inhibition of HER2 (unknown origin) at 1 uM after 1 hr relative to control

[12] = Toxicity in ip dosed nude mouse xenografted with human NCI-H1975 cells expressing T790M/L858R mutation administered qd for 14 days; format: organism-based; settings: in vivo
[13] = target: T2, Tyrosine-protein kinase JAK3 (Homo sapiens) (UniProt P52333); settings: 1 uM
T2 sequence (whole entry): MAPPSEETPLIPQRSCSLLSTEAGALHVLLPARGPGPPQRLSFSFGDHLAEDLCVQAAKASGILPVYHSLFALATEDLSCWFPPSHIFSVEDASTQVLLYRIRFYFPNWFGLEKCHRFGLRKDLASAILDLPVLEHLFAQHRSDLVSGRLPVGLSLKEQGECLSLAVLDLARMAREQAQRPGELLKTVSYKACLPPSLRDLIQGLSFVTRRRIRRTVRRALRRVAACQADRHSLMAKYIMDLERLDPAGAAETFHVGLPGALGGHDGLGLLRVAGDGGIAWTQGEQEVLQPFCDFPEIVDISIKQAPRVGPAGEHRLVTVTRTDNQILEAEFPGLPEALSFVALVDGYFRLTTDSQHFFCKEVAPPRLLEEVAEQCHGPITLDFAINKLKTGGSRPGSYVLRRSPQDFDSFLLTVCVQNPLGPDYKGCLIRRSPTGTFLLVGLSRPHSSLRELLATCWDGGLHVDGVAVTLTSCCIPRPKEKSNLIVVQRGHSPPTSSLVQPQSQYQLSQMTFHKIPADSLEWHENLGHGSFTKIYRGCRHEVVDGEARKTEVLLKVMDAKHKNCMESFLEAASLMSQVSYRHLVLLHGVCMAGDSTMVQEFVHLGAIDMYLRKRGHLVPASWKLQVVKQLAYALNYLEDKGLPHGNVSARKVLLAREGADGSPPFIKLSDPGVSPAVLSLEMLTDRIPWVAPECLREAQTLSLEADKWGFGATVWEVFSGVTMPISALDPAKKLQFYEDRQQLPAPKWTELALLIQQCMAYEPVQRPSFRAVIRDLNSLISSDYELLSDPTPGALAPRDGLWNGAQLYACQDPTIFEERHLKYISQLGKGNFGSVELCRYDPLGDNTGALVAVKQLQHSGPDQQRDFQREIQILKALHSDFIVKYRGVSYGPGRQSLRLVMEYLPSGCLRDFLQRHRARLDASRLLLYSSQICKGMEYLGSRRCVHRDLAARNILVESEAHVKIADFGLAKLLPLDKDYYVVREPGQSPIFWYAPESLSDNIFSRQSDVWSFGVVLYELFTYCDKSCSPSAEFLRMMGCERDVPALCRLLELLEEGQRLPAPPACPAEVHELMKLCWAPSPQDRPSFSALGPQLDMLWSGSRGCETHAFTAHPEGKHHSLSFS
Description: Inhibition of JAK3 JH1 catalytic domain (unknown origin) at 1 uM after 1 hr relative to control

[14] = target: Receptor tyrosine-protein kinase erbB-4 (Homo sapiens) (UniProt Q15303); settings: 1 uM
Chain of Receptor tyrosine-protein kinase erbB-4 (Homo sapiens) (Q15303 whole entry): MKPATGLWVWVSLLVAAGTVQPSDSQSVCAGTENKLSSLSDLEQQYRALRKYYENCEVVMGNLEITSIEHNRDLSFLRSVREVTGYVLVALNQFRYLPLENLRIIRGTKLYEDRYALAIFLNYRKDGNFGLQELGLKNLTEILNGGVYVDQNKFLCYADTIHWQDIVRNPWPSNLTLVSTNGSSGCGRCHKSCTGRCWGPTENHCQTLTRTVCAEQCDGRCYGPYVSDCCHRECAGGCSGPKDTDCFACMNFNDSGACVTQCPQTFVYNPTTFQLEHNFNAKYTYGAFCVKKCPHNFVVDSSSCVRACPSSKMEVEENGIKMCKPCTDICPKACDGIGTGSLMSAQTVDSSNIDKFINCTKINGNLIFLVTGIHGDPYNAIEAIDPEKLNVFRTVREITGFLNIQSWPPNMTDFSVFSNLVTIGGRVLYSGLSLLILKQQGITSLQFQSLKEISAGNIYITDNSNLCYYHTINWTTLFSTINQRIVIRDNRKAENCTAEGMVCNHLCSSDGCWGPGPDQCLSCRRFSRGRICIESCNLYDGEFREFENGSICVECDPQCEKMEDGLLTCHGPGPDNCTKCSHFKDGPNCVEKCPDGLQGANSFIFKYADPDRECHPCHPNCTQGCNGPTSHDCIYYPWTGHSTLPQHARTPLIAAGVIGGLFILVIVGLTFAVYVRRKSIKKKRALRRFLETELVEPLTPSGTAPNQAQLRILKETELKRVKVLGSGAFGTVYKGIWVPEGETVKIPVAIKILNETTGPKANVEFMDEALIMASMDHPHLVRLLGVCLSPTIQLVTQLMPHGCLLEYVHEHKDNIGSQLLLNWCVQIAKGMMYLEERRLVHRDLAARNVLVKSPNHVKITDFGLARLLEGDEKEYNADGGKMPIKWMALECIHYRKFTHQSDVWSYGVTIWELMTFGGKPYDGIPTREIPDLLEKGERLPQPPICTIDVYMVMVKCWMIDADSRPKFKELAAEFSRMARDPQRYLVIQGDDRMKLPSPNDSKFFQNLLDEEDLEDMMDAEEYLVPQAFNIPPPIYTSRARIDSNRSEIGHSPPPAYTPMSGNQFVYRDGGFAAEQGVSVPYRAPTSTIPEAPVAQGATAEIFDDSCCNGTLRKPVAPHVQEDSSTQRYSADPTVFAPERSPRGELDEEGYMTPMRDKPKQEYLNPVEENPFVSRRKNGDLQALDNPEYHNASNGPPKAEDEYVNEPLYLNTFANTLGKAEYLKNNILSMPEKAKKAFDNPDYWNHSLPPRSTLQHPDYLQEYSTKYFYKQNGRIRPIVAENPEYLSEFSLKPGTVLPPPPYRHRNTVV
Description: Inhibition of HER4 (unknown origin) at 1 uM after 1 hr relative to control

[15] = tested on: NCI-H1975; assay: Antitumor activity against human NCI-H1975 cells xenografted in nude mouse assessed as induction of tumor stasis at 20 mg/kg, ip qd for 14 days; format: functional, organism-based; set-up: dose 20 mg/kg
[16] = target: Tyrosine-protein kinase BTK (Homo sapiens) (UniProt Q06187); settings: 1 uM
Chain of Tyrosine-protein kinase BTK (Homo sapiens) (Q06187 whole entry): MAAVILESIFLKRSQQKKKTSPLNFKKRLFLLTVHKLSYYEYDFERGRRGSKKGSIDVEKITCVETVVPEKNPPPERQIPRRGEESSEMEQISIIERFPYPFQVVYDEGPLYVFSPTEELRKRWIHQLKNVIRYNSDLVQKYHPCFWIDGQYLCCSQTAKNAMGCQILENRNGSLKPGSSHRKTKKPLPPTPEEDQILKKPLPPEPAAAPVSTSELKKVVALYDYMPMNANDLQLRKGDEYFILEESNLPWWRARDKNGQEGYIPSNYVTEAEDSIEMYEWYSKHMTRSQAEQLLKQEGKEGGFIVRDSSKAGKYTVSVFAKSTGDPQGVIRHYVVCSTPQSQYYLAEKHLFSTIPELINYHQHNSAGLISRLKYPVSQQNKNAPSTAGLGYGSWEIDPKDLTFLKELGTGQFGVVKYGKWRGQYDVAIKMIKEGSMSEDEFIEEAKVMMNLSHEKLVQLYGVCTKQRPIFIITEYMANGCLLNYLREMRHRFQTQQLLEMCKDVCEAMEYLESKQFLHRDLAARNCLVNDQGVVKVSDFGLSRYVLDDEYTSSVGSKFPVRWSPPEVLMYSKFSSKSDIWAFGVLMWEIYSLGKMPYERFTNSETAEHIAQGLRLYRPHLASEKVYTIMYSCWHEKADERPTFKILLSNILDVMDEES
Description: Inhibition of BTK (unknown origin) at 1 uM after 1 hr relative to control

[17] = tested on: Epidermal growth factor receptor (Homo sapiens), P00533 [L858R,T790M]; settings: 1 uM
[18] = target: T1, Epidermal growth factor receptor; settings: 1 uM
Description: Inhibition of EGFR (unknown origin) at 1 uM after 1 hr relative to control

[19] = tested on: NCI-H1975; assay: Antitumor activity against human NCI-H1975 cells xenografted in nude mouse assessed as tumor growth inhibition at 20 mg/kg, ip qd for 14 days; format: functional, organism-based; set-up: dose 20 mg/kg

| Compound | IC50 [1] | IC50 ([2]; read-out: IC50) | IC50 [6] | IC50 ([5]; read-out: IC50) | IC50 [4] | also measured |
| --- | --- | --- | --- | --- | --- | --- |
| COc1ccc(Nc2ncc3ncc(=O)n(-c4ccc(N)cc4)c3n2)cc1 | > 10000 nM |  |  |  | > 10000 nM | IC50 [2]: Not Active; IC50 [3]: Not Active; IC50 [5]: Not Active |
| CN(C)C/C=C/C(=O)Nc1ccc(-n2c(=O)cnc3cnc(Nc4ccccc4)nc32)cc1 | > 10000 nM |  |  |  | 5010 nM | IC50 [2]: Not Active; IC50 [3]: Not Active; IC50 [5]: Not Active |
| COc1ccc(-n2c(=O)cnc3cnc(Nc4cccc(N)c4)nc32)cc1 | > 10000 nM | 18300 nM | 3840 nM | 8040 nM | > 10000 nM |  |
| C=CC(=O)Nc1ccc(-n2c(=O)cnc3cnc(Nc4ccccc4)nc32)cc1 | > 10000 nM |  |  |  | > 10000 nM | IC50 [2]: Not Active; IC50 [3]: Not Active; IC50 [5]: Not Active |
| CCC(=O)Nc1cccc(-n2c(=O)cnc3cnc(Nc4ccc(OC)cc4)nc32)c1 | > 10000 nM |  |  |  | > 10000 nM | IC50 [2]: Not Active; IC50 [3]: Not Active; IC50 [5]: Not Active |
| CCC(=O)Nc1ccc(-n2c(=O)cnc3cnc(Nc4ccc(OC)cc4)nc32)cc1 | > 10000 nM |  |  |  | > 10000 nM | IC50 [2]: Not Active; IC50 [3]: Not Active; IC50 [5]: Not Active |
| COc1ccc(-n2c(=O)cnc3cnc(Nc4ccc(N)cc4)nc32)cc1 | > 10000 nM | 25800 nM |  | 8450 nM | > 10000 nM |  |
| C=CC(=O)Nc1cccc(-n2c(=O)cnc3cnc(Nc4ccc(N5CCN(C)CC5)cc4OC)nc32)c1 | 59 nM | 3.82 nM | 1.07 nM | 2.56 nM | 8.6 nM | residual activity [7]: 0.3%; Activity [8]: < 5%; Activity [9]: Non-toxic; residual activity [10]: 0.35%; residual activity [11]: < 10%; MTD at 336 h [12]: 20 mg/kg; residual activity [13]: < 10%; residual activity [14]: < 1%; Activity [15]: Active; residual activity [16]: < 1%; residual activity [17]: 0.1%; residual activity [18]: < 10%; TGI [19]: Active |
| COc1ccc(Nc2ncc3ncc(=O)n(-c4cccc(N)c4)c3n2)cc1 | > 10000 nM |  | 21300 nM | 55900 nM | > 10000 nM | IC50 [2]: Not Active |
| C=CC(=O)Nc1ccc(-n2c(=O)c(C)nc3cnc(Nc4ccc(OC)cc4)nc32)cc1 | > 10000 nM | 16300 nM | 35000 nM | 7170 nM | 2760 nM |  |
| C=CC(=O)Nc1ccc(-n2c(=O)cnc3cnc(Nc4ccc(Cl)cc4)nc32)cc1 | > 10000 nM | 374 nM | 144 nM | 496 nM | > 10000 nM |  |
| COc1ccc(Nc2ncc3ncc(=O)n(-c4ccc(NC(=O)/C=C/CN(C)C)cc4)c3n2)cc1 | > 10000 nM | 59.1 nM | 31.3 nM | 76.5 nM | 8380 nM |  |
| C=CC(=O)Nc1ccc(-n2c(=O)cnc3cnc(Nc4ccc(N5CCOCC5)cc4)nc32)cc1 | > 10000 nM | 5590 nM | 3460 nM | 8670 nM | 7160 nM |  |

The next lines start with results.

| IC50 [1] | IC50 ([2]; read-out: IC50) | IC50 [6] | IC50 ([5]; read-out: IC50) | Compound | IC50 [4] | also measured |
| --- | --- | --- | --- | --- | --- | --- |
| 255 nM | 6.95 nM | 2.86 nM | 7.26 nM | C=CC(=O)Nc1cccc(-n2c(=O)cnc3cnc(Nc4ccc(N5CCOCC5)cc4)nc32)c1 | 15.2 nM |  |
| 559 nM | 26300 nM | 56200 nM | 32800 nM | COc1ccc(Nc2ncc3ncc(=O)n(-c4cccc(NC(=O)/C=C/CN(C)C)c4)c3n2)cc1 | 917 nM |  |
| 2240 nM | 47.1 nM | 17.6 nM | 49.1 nM | C=CC(=O)Nc1cccc(-n2c(=O)cnc3cnc(Nc4ccc(Cl)cc4)nc32)c1 | 175 nM |  |
| 62.2 nM | 1.21 nM | 0.677 nM | 1.32 nM | C=CC(=O)Nc1cccc(-n2c(=O)cnc3cnc(Nc4ccc(N5CCN(C)CC5)cc4)nc32)c1 | 4.02 nM |  |
| 2200 nM | 5130 nM | 4800 nM | 23700 nM | C=CC(=O)Nc1ccc(-n2c(=O)cnc3cnc(Nc4ccc(OC)cc4)nc32)cc1 | 1690 nM |  |
| 4090 nM | 14.5 nM | 4.72 nM | 14.1 nM | C=CC(=O)Nc1cccc(-n2c(=O)cnc3cnc(Nc4ccc(N(CC)CC)cc4)nc32)c1 | 44.5 nM |  |
| 6140 nM | 1100 nM | 691 nM | 1510 nM | C=CC(=O)Nc1ccc(-n2c(=O)cnc3cnc(Nc4ccc(N5CCN(C)CC5)cc4)nc32)cc1 | 2370 nM |  |
| 63.8 nM | 13.8 nM | 5.6 nM | 14.8 nM | C=CC(=O)Nc1cccc(-n2c(=O)cnc3cnc(Nc4ccc(OC)cc4)nc32)c1 | 9.49 nM |  |
| 8480 nM | 12.1 nM | 3.97 nM | 11.8 nM | C=CC(=O)Nc1cccc(-n2c(=O)cnc3cnc(Nc4ccc(C(N)=O)cc4)nc32)c1 | 511 nM |  |
| 5900 nM | 60.4 nM | 59.1 nM | 123 nM | C=CC(=O)Oc1ccc(-n2c(=O)cnc3cnc(Nc4ccc(OC)cc4)nc32)cc1 | 8590 nM |  |
| 2740 nM | 395 nM | 272 nM | 496 nM | C=CC(=O)Nc1ccc(-n2c(=O)cnc3cnc(Nc4ccc(N5CCN(C)CC5)cc4OC)nc32)cc1 | 503 nM |  |
| 1330 nM | 33900 nM | 70200 nM | 70600 nM | C=CC(=O)Nc1ccc(Nc2ncc3ncc(=O)n(-c4ccc(OC)cc4)c3n2)cc1 | 1460 nM |  |
| 4080 nM | 12.5 nM | 4.53 nM | 14 nM | C=CC(=O)Nc1cccc(-n2c(=O)cnc3cnc(Nc4ccc(NC(C)=O)cc4)nc32)c1 | 388 nM |  |
| 298 nM | 15.7 nM | 5.12 nM | 14.8 nM | C=CC(=O)Nc1cccc(-n2c(=O)cnc3cnc(Nc4ccc(N5CCCCC5)cc4)nc32)c1 | 25.3 nM |  |
| 2360 nM |  |  |  | C=CC(=O)Nc1cccc(Nc2ncc3ncc(=O)n(-c4ccc(OC)cc4)c3n2)c1 | 1220 nM | IC50 [2]: Not Active; IC50 [3]: Not Active; IC50 [5]: Not Active |
| 579 nM | 15.3 nM | 4.96 nM | 13 nM | C=CC(=O)Nc1cccc(-n2c(=O)cnc3cnc(Nc4ccc(N5CCCC5)cc4)nc32)c1 | 70.8 nM |  |
